Test results: US8741931B2, “Kinase inhibitors” (priority 2007, dated 2014)

Tests used:
Type in all cases: biochemical
PKC theta kinase = PKC theta kinase (Homo sapiens, UniProt Q04759); assay: PKC Theta I (coupled enzyme assay, absorbance at 340 nm); settings: 240 μM ATP, 18 nM PKC theta, absorbance read out
Procedure: (§1) An assay buffer solution was prepared which consisted of 100 mM HEPES (pH 7.5), 10 mM MgCl2, 25 mM NaCl, 0.1 mM EDTA and 0.01% Brij. […] To 60 μL of this enzyme buffer, in a 384 well plate, was added 2 μL of VRT stock solution in DMSO. The mixture was allowed to equilibrate for 10 mins at 30° C. […] Ki values were calculated from initial rate data by non-linear regression using the Prism software package (Prism 4.0a, Graphpad Software, San Diego, Calif.).

PKC delta kinase = PKC delta kinase (Homo sapiens, UniProt Q05655); assay: PKC Delta (coupled enzyme assay); settings: 150 μM ATP, 46 nM PKC delta; read-out: Ki PKC delta
PKC delta kinase, sequence (Q05655 whole entry): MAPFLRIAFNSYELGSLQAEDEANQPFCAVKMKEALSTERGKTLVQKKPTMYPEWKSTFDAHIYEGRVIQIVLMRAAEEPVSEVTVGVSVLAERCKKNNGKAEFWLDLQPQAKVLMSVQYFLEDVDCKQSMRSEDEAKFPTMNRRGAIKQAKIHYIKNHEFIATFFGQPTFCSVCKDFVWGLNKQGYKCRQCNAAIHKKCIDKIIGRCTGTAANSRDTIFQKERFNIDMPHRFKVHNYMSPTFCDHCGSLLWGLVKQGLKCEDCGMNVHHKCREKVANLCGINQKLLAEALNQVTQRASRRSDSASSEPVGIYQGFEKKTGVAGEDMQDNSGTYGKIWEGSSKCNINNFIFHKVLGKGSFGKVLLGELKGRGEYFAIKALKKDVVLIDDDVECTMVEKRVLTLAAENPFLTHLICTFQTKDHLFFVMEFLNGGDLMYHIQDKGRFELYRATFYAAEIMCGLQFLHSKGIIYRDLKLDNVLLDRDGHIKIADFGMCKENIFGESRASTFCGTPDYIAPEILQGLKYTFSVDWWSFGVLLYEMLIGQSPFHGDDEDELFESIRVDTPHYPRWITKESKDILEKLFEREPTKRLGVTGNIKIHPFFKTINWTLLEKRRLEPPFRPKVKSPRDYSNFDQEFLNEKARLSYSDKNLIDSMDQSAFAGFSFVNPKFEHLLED
Procedure: as §1, with “To 16” for “To 60”, “added 1” for “added 2”

PKC alpha kinase = PKC alpha kinase (Homo sapiens, UniProt P17252); assay: PKC Alpha (coupled enzyme assay); settings: 130 μM ATP, 4.5 nM PKC alpha
Procedure: as §1, with “mM EDTA, 100 μM CaCl2” for “mM EDTA”, “To 16” for “To 60”, “added 1” for “added 2”

PKC theta kinase, sequence (Q04759 whole entry): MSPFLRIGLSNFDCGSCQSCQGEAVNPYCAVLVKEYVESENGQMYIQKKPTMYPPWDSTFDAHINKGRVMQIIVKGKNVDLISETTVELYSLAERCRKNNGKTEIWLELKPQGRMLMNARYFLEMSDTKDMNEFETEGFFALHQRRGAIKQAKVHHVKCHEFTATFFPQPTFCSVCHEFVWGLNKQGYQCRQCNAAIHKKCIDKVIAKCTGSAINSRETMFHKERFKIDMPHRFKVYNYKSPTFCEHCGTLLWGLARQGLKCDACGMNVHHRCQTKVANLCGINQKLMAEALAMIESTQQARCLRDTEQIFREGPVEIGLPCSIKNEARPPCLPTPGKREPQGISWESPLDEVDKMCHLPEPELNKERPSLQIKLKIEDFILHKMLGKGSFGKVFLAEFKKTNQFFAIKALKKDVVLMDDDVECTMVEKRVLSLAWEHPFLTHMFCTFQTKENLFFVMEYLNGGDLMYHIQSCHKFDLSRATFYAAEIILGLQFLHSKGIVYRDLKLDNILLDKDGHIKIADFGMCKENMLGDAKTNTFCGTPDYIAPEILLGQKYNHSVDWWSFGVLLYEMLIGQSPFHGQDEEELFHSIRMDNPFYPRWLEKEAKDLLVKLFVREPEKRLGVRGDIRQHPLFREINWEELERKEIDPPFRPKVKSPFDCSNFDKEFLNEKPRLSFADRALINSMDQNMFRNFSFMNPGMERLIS

SMILES | Ki (PKC theta kinase) [nM] | Ki (PKC delta kinase) [nM] | Ki (PKC alpha kinase) [nM]
Nc1ncccc1C(=O)c1cccc(N2CCCN(C(=O)c3cccs3)CC2)n1 [compound 90] | 500 to 2800 | > 2800 | 
CC(C)C1OC(=O)N2CCN(c3ccc(C(F)(F)F)c(C(=O)c4cccnc4N)n3)CC12 (centres unmarked) [compound 453] | 500 to 2800 | > 2800 | > 2800
Nc1ncccc1C(=O)c1nc(OCC2(N)CCCC2)ccc1C(F)(F)F [compound 438] | 500 to 2800 | 500 to 2800 | > 2800
CC[C@H]1CN(c2ccc(C(F)(F)F)c(C(=O)c3cccnc3N)n2)C[C@H](CC(C)C)N1 [compound 489] | 500 to 2800 | 500 to 2800 | > 2800
CC(Nc1ccc(C(F)(F)F)c(C(=O)c2cccnc2N)n1)[C@@H](O)c1ccccc1 (some centres unmarked) [compound 430] | 500 to 2800 | > 2800 | > 2800
CC(C)C[C@H]1CN(c2cc(C(=O)c3cccnc3N)c(-c3ccco3)cn2)CCN1 [compound 428] | 500 to 2800 | > 2800 | > 2800
Cc1ccc(CC(=O)N2CCCN(c3cccc(C(=O)c4cc(Br)cnc4N)n3)CC2)cc1 [compound 74] | 500 to 2800 |  | 
Cc1ccsc1CN1CCCN(c2cccc(C(=O)c3cc(Br)cnc3N)n2)CC1 [compound 139] | 500 to 2800 |  | 
Nc1ncccc1C(=O)c1cccc(N2CCCN(C(=O)Cc3cccc(O)c3)CC2)n1 [compound 77] | 500 to 2800 |  | 
CCC[C@H]1CN(c2ccc(C(F)(F)F)c(C(=O)c3cccnc3N)n2)C[C@@H](c2ccccc2)N1 [compound 481] | 500 to 2800 | > 2800 | > 2800
N#CCC(=O)N1CCCN(c2cccc(C(=O)c3cccnc3N)n2)CC1 [compound 22] | 500 to 2800 |  | 
CC(C)(C)OC(=O)NC1CCN(c2cccc(C(=O)c3cc(Br)cnc3N)n2)CC1 [compound 135] | 500 to 2800 |  | 
CC(C)(C)OC(=O)N1CCCN(c2nccc(C(=O)c3cccnc3N)n2)CC1 [compound 110] | 500 to 2800 |  | 
CC(C)C[C@H]1CN(c2ccc(C#CC(C)(C)O)c(C(=O)c3cccnc3N)n2)CCN1 [compound 467] | 500 to 2800 | > 2800 | > 2800
Nc1ncccc1C(=O)c1nc(NCCO)ccc1C(F)(F)F [compound 423] | 500 to 2800 | > 2800 | > 2800
Cc1ccoc1C(=O)N1CCCN(c2cccc(C(=O)c3cccnc3N)n2)CC1 [compound 91] | 500 to 2800 |  | 
CC(C)(C)C(=O)N1CCCN(c2cccc(C(=O)c3cc(Br)cnc3N)n2)CC1 [compound 73] | 500 to 2800 |  | 
Nc1ncc(Br)cc1C(=O)c1cccc(N2CCCN(CCc3ccccc3)CC2)n1 [compound 114] | 500 to 2800 |  | 
CC[C@@H]1CN(c2ccc(C(F)(F)F)c(C(=O)c3cccnc3N)n2)C[C@H](C(C)C)N1 [compound 472] | 500 to 2800 | > 2800 | > 2800
CC(C)[C@H]1CN(c2ccc(C(F)(F)F)c(C(=O)c3cccnc3N)n2)C[C@@H](c2ccccc2)N1 [compound 449] | 500 to 2800 | > 2800 | > 2800
CCC[C@H]1CN(c2ccc(C(F)(F)F)c(C(=O)c3cccnc3N)n2)C[C@H](CC(C)C)N1 [compound 493] | 500 to 2800 | 500 to 2800 | > 2800
